Data published in patent US12077503B2, “Substituted cyclic amides and their use as herbicides” (FMC CORPORATION, priority 2015, dated 2024).

Experiments:
Assay type in all cases: in vivo
[1] = test system: Kochia (Kochia scoparia); assay: Test A preemergence; details: Bassia scoparia, pre-emergence, 240 h; for pest or weed control at 125 g/ha: 125 g ai/ha, Preemergence, visual injury rating after approximately 10 d, read-out: Kochia plant response rating (0 to 100 scale, 0 is no effect, 100 is complete control); for pest or weed control at 500 g/ha: 500 g ai/ha, preemergence, visual injury rating about 10 d after treatment, 0 to 100 scale (0 no effect, 100 complete control), read-out: Kochia plant response rating
Summary of the method: (§1)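 Ratings of 0 (no effect) to 100 (complete control) come from visual comparison with untreated controls roughly 10 d after treatment. Test chemicals, formulated in a non-phytotoxic solvent mixture with surfactant, were applied either as a preemergence directed soil spray on seeded soil or postemergence to one- to two-leaf plants 2 to 10 cm tall.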

[2] = test system: barnyardgrass (Echinochloa crus-galli); assay: Test A preemergence; details: Echinochloa crus-galli, pre-emergence, 240 h; for pest or weed control at 125 g/ha: 125 g ai/ha, Preemergence, visual injury rating after approximately 10 d, read-out: Barnyardgrass plant response rating (0 to 100 scale, 0 is no effect, 100 is complete control); for pest or weed control at 500 g/ha: 500 g ai/ha, preemergence, visual injury rating about 10 d after treatment, 0 to 100 scale (0 no effect, 100 complete control), read-out: Barnyardgrass plant response rating
Summary of the method: as §1

[3] = test system: giant foxtail (Setaria faberii); assay: Test A preemergence; details: Setaria faberi, pre-emergence, 240 h; for pest or weed control at 125 g/ha: 125 g ai/ha, Preemergence, visual injury rating after approximately 10 d, read-out: Foxtail, Giant plant response rating (0 to 100 scale, 0 is no effect, 100 is complete control); for pest or weed control at 500 g/ha: 500 g ai/ha, preemergence, visual injury rating about 10 d after treatment, 0 to 100 scale (0 no effect, 100 complete control), read-out: Foxtail, Giant plant response rating
Summary of the method: as §1

[4] = test system: pigweed (Amaranthus retroflexus); assay: Test A preemergence; details: Amaranthus retroflexus, pre-emergence, 240 h; for pest or weed control at 125 g/ha: 125 g ai/ha, Preemergence, visual injury rating after approximately 10 d, read-out: Pigweed plant response rating (0 to 100 scale, 0 is no effect, 100 is complete control); for pest or weed control at 500 g/ha: 500 g ai/ha, preemergence, visual injury rating about 10 d after treatment, 0 to 100 scale (0 no effect, 100 complete control), read-out: Pigweed plant response rating
[5] = test system: ragweed (common ragweed, Ambrosia elatior); assay: Test A preemergence; details: Ambrosia artemisiifolia, pre-emergence, 240 h; for pest or weed control at 500 g/ha: 500 g ai/ha, preemergence, visual injury rating about 10 d after treatment, 0 to 100 scale (0 no effect, 100 complete control), read-out: Ragweed plant response rating; for pest or weed control at 125 g/ha: 125 g ai/ha, Preemergence, visual injury rating after approximately 10 d, read-out: Ragweed plant response rating (0 to 100 scale, 0 is no effect, 100 is complete control)
Summary of the method: as §1

[6] = test system: ryegrass, Italian (Italian ryegrass, Lolium multiflorum); assay: Test A preemergence; details: Lolium multiflorum, pre-emergence, 240 h; for pest or weed control at 125 g/ha: 125 g ai/ha, Preemergence, visual injury rating after approximately 10 d, read-out: Ryegrass, Italian plant response rating (0 to 100 scale, 0 is no effect, 100 is complete control); for pest or weed control at 500 g/ha: 500 g ai/ha, preemergence, visual injury rating about 10 d after treatment, 0 to 100 scale (0 no effect, 100 complete control), read-out: Ryegrass, Italian plant response rating
Summary of the method: as §1

[7] = test system: Galium (catchweed bedstraw, Galium aparine); assay: Test A postemergence; details: Galium, post-emergence, 240 h, 125 g ai/ha, Postemergence; visual injury after approximately 10 d; 0 to 100 scale where 0 is no effect and 100 is complete control; read-out: Plant response rating, Galium
Summary of the method: as §1

[8] = test system: Kochia (Kochia scoparia); assay: Test A postemergence; details: Bassia scoparia, post-emergence, 240 h, 125 g ai/ha, Postemergence; visual injury after approximately 10 d; 0 to 100 scale where 0 is no effect and 100 is complete control; read-out: Plant response rating, Kochia
Summary of the method: as §1

[9] = test system: blackgrass (Alopecurus myosuroides); assay: Test A postemergence; details: Alopecurus myosuroides, post-emergence, 240 h, 125 g ai/ha, Postemergence; visual injury after approximately 10 d; 0 to 100 scale where 0 is no effect and 100 is complete control; read-out: Plant response rating, Blackgrass
Summary of the method: as §1

[10] = test system: corn (Zea mays); assay: Test A postemergence; details: Zea mays, post-emergence, 240 h, 125 g ai/ha, Postemergence; visual injury after approximately 10 d; 0 to 100 scale where 0 is no effect and 100 is complete control
Summary of the method: as §1

[11] = test system: giant foxtail (Setaria faberii); assay: Test A postemergence; details: Setaria faberi, post-emergence, 240 h, 125 g ai/ha, Postemergence; visual injury after approximately 10 d; 0 to 100 scale where 0 is no effect and 100 is complete control; read-out: Plant response rating, Foxtail, Giant
Summary of the method: as §1

[12] = test system: pigweed (Amaranthus retroflexus); assay: Test A postemergence; details: Amaranthus retroflexus, post-emergence, 240 h, 125 g ai/ha, Postemergence; visual injury after approximately 10 d; 0 to 100 scale where 0 is no effect and 100 is complete control; read-out: Plant response rating, Pigweed
Summary of the method: as §1

[13] = test system: ragweed (common ragweed, Ambrosia elatior); assay: Test A postemergence; details: Ambrosia artemisiifolia, post-emergence, 240 h, 125 g ai/ha, Postemergence; visual injury after approximately 10 d; 0 to 100 scale where 0 is no effect and 100 is complete control; read-out: Plant response rating, Ragweed
Summary of the method: as §1

[14] = test system: ryegrass, Italian (Italian ryegrass, Lolium multiflorum); assay: Test A postemergence; details: Lolium multiflorum, post-emergence, 240 h, 125 g ai/ha, Postemergence; visual injury after approximately 10 d; 0 to 100 scale where 0 is no effect and 100 is complete control; read-out: Plant response rating, Ryegrass, Italian
Summary of the method: as §1

[15] = test system: wheat (Triticum aestivum); assay: Test A postemergence; details: Triticum aestivum, post-emergence, 240 h, 125 g ai/ha, Postemergence; visual injury after approximately 10 d; 0 to 100 scale where 0 is no effect and 100 is complete control; read-out: Plant response rating, Wheat
Summary of the method: as §1

[16] = test system: barnyardgrass (Echinochloa crus-galli); assay: Test B flooded paddy test; details: Echinochloa crus-galli, Flood, 250 g ai/ha; scale of 0 to 100 where 0 is no effect and 100 is complete control; read-out: Barnyardgrass plant response rating
Summary of the method: (§2)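 Percent control, visually estimated after 13–15 d in the greenhouse on a 0–100 basis, compares treated pots with untreated ones; compound was put into paddy water 3 cm above the soil when plants had two leaves.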

[17] = test system: ducksalad (Heteranthera limosa); assay: Test B flooded paddy test; details: Heteranthera limosa, Flood, 250 g ai/ha; scale of 0 to 100 where 0 is no effect and 100 is complete control; read-out: Ducksalad plant response rating
Summary of the method: as §2

[18] = test system: rice (Oryra sativa); assay: Test B flooded paddy test; details: Oryza sativa, Flood, 250 g ai/ha; scale of 0 to 100 where 0 is no effect and 100 is complete control; read-out: Rice plant response rating
Summary of the method: as §2

[19] = test system: sedge, umbrella (small-flower umbrella sedge, Cyperus difformis); assay: Test B flooded paddy test; details: Cyperus difformis, Flood, 250 g ai/ha; scale of 0 to 100 where 0 is no effect and 100 is complete control; read-out: Sedge, Umbrella plant response rating
Summary of the method: as §2

SMILES: CSc1ccccc1NC(=O)[C@H]1C(=O)N(C)C[C@@H]1c1cc(F)cc(Cl)c1 [Compound 975]
- pest or weed control at 125 g/ha [1]: 50%
- pest or weed control at 500 g/ha [1]: 90%
- pest or weed control at 125 g/ha [2]: 90%
- pest or weed control at 500 g/ha [2]: 100%
- pest or weed control at 125 g/ha [3]: 90%
- pest or weed control at 500 g/ha [3]: 90%
- pest or weed control at 125 g/ha [4]: 20%
- pest or weed control at 500 g/ha [4]: 90%
- pest or weed control at 500 g/ha [5]: 90%
- pest or weed control at 125 g/ha [6]: 30%
- pest or weed control at 500 g/ha [6]: 40%
- pest or weed control at 125 g/ha [7]: 50%
- pest or weed control at 125 g/ha [8]: 40%
- pest or weed control at 125 g/ha [9]: 50%
- Corn plant response rating (crop injury, 0 = no effect, 100 = complete kill) at 125 g/ha [10]: 20%
- pest or weed control at 125 g/ha [11]: 90%
- pest or weed control at 125 g/ha [12]: 30%
- pest or weed control at 125 g/ha [13]: 0%
- pest or weed control at 125 g/ha [14]: 20%
- plant injury at 125 g/ha [15]: 20%
- pest or weed control at 250 g/ha [16]: 40%
- pest or weed control at 250 g/ha [17]: 90%
- pest or weed control at 250 g/ha [18]: 0%
- pest or weed control at 250 g/ha [19]: 0%

SMILES: Cc1c(F)cccc1NC(=O)[C@H]1C(=O)N(C)C[C@@H]1c1cc(F)cc(Cl)c1 [Compound 978]
- pest or weed control at 125 g/ha [1]: 40%
- pest or weed control at 500 g/ha [1]: 90%
- pest or weed control at 125 g/ha [2]: 90%
- pest or weed control at 500 g/ha [2]: 90%
- pest or weed control at 125 g/ha [3]: 90%
- pest or weed control at 500 g/ha [3]: 90%
- pest or weed control at 125 g/ha [4]: 0%
- pest or weed control at 500 g/ha [4]: 50%
- pest or weed control at 125 g/ha [5]: 90%
- pest or weed control at 500 g/ha [5]: 90%
- pest or weed control at 125 g/ha [6]: 60%
- pest or weed control at 500 g/ha [6]: 90%
- pest or weed control at 125 g/ha [7]: 50%
- pest or weed control at 125 g/ha [8]: 0%
- pest or weed control at 125 g/ha [9]: 60%
- Corn plant response rating (crop injury, 0 = no effect, 100 = complete kill) at 125 g/ha [10]: 60%
- pest or weed control at 125 g/ha [11]: 90%
- pest or weed control at 125 g/ha [12]: 0%
- pest or weed control at 125 g/ha [13]: 0%
- pest or weed control at 125 g/ha [14]: 50%
- plant injury at 125 g/ha [15]: 70%
- pest or weed control at 250 g/ha [16]: 65%
- pest or weed control at 250 g/ha [17]: 100%
- pest or weed control at 250 g/ha [18]: 30%
- pest or weed control at 250 g/ha [19]: 0%

SMILES: COc1cc(OC)cc([C@H]2CN(C)C(=O)[C@@H]2C(=O)Nc2ccccc2SC)c1 [Compound 981]
- pest or weed control at 125 g/ha [1]: 0%
- pest or weed control at 500 g/ha [1]: 90%
- pest or weed control at 125 g/ha [2]: 90%
- pest or weed control at 500 g/ha [2]: 100%
- pest or weed control at 125 g/ha [3]: 90%
- pest or weed control at 500 g/ha [3]: 100%
- pest or weed control at 125 g/ha [4]: 0%
- pest or weed control at 500 g/ha [4]: 0%
- pest or weed control at 125 g/ha [5]: 0%
- pest or weed control at 500 g/ha [5]: 50%
- pest or weed control at 125 g/ha [6]: 0%
- pest or weed control at 500 g/ha [6]: 60%
- pest or weed control at 125 g/ha [7]: 0%
- pest or weed control at 125 g/ha [8]: 0%
- pest or weed control at 125 g/ha [9]: 0%
- Corn plant response rating (crop injury, 0 = no effect, 100 = complete kill) at 125 g/ha [10]: 0%
- pest or weed control at 125 g/ha [11]: 70%
- pest or weed control at 125 g/ha [12]: 0%
- pest or weed control at 125 g/ha [13]: 0%
- pest or weed control at 125 g/ha [14]: 0%
- plant injury at 125 g/ha [15]: 0%
- pest or weed control at 250 g/ha [16]: 0%
- pest or weed control at 250 g/ha [17]: 0%
- pest or weed control at 250 g/ha [18]: 0%
- pest or weed control at 250 g/ha [19]: 0%
